This passage reports IC50 results from US20230203058A1, “MACROCYCLIC DIAMINE DERIVATIVES AS ENT INHIBITORS FOR THE TREATMENT OF CANCERS, AND COMBINATION THEREOF WITH ADENOSINE RECEPTOR ANTAGONISTS” (ITEOS BELGIUM SA, priority 2020, published 2023).

Each structure is given as a SMILES string. A value given as a limit tells only on which side of the number the result lay.

This experiment concerns the target T1, human ENT1 (Homo sapiens, UniProt Q99808).
T1 sequence (Q99808 1-456): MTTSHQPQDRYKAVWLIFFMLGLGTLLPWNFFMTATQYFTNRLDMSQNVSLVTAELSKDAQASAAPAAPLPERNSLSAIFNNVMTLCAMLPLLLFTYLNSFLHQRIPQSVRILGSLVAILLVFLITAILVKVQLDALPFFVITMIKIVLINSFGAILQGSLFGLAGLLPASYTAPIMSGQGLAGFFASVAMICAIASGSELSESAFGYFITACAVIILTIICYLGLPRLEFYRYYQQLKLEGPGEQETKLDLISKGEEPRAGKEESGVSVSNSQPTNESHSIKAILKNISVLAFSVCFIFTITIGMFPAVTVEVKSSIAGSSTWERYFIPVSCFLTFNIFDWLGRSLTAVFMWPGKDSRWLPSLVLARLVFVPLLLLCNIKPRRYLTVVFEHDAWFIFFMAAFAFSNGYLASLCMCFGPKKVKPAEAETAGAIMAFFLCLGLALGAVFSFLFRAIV
Briefly: ENT1 binding assay (competition with Sahenta-DY647 on JAR cells). Details: JAR cells expressing ENT1 were bought from ATCC® (HTB-144TM); host or cells: JAR cells (human choriocarcinoma line; whole cells). To be noted: competition with Sahenta-DY647 100 nM, 4° C. As to the method:
The present assay aims at showing that the compounds of the present invention can bind to human ENT1. The principle of the assay is a competition between the compounds of this invention and Sahenta-DY647, an ENT1 inhibitor that emits fluorescence (Ex = 630 nm, Em = 670 nm). By measuring the fluorescence at the end of the assay we could assess the binding potency of the compounds of the present invention.
JAR cells expressing ENT1 were bought from ATCC® (HTB-144TM). Cells were cultured in RPMI 1640 medium (LONZA®, #BE12-702F/U1) supplemented with 10% FBS (GIBCO®, #10270-106), 10 mM Hepes (LONZA®, #BE17-737E), 1 mM Sodium Pyruvate (LONZA®, #BE13-115E) and 2% Penicillin/Streptomycin (LONZA®, #DE17-603E) at 37° C. and 5% CO2. The assay was conducted on the following buffer: HBSS (LONZA®, #LO-527F) supplemented with 10 mM Hepes (LONZA®, #BE17-737E) and 0.1% BSA (Miltenyi®, #130-091-376) on the day of the assay. JAR cells were resuspended in the described buffer. Compounds of the present invention and Sahenta-DY647 were diluted 200X in the described buffer.
A total of 50000 cells were pre-incubated for 30 min at 4° C. with the compounds of the present invention before adding the corresponded IC90 of Sahenta-DY647 (100 nM) and incubate once more for 30 min at 4° C. The total volume of the reaction was 100 µL (50 µL of cells, 25 µL of the compounds of the present invention and 25 µL of Sahenta-DY647) in a 96 well plate, U-bottom (Greiner®, #650-180). The plates were washed 2X by centrifugation (4 min, 400 rcf at 4° C.) in the same buffer. Cells were resuspended in 70 µL of the buffer and 50 µL was transferred to a Black 384 Optiplate (PerkinElmer®, #6007279). Fluorescence (Ex = 630 nm, Em = 670 nm) was acquired on a Spectramax i3x (Molecular Devices®).
In turn, `COc1cc(C(=O)O[C@H]2CCCOc3cccc(c3)C(=O)OCCCN3CCCN(CC2)CC3)cc(OC)c1OC` (stereo in doubt) [Compound 17, (12S)-6-oxo-5,8-dioxa-1(1,4)-diazepana-7(1,3)-benzenacyclotetradecaphane-12-yl 3,4,5-trimethoxybenzoate] yielded an IC50 of over 500 nM.
For `O=C1NCCCN2CCCN(CC[C@@H](OC(=O)c3ccccc3)CCCOc3cccc1c3)CC2` (stereo in doubt) [Compound 19, (12S)-6-oxo-8-oxa-5-aza-1(1,4)-diazepana-7(1,3)-benzenacyclotetradecaphane-12-yl benzoate] the value was over 500 nM.
On to `O=C1NCCCN2CCCN(CC[C@H](OC(=O)c3ccccc3)CCCOc3cccc1c3)CC2` (stereo in doubt) [Compound 20, (12R)-6-oxo-8-oxa-5-aza-1(1,4)-diazepana-7(1,3)-benzenacyclotetradecaphane-12-yl benzoate], for which the IC50 was over 500 nM.
For `COc1cc2cc(c1OC)OCCC[C@H](O/N=C/c1ccccc1)CCN1CCCN(CCCNC2=O)CC1` (stereo in doubt) [Compound 116, (E)-benzaldehyde O-((12S)-74,75-dimethoxy-6-oxo-8-oxa-5-aza-1(1,4)-diazepana-7(1,3)-benzenacyclotetradecaphane-12-yl) oxime] the value was over 500 nM; for `COc1cc(C(=O)NC2CCCOc3cc(cc(OC)c3OC)C(=O)OCCCN3CCCN(CC2)CC3)cc(OC)c1OC` (stereo not drawn) [Compound 3, N-(74,75-dimethoxy-6-oxo-5,8-dioxa-1(1,4)-diazepana-7(1,3)-benzenacyclotetradecaphane-12-yl)-3,4,5-trimethoxybenzamide], over 500 nM.
For `COc1cc(C(=O)O[C@H]2CCCOc3cc(cc(OC)c3OC)C(=O)NCCCN3CCCN(CC2)CC3)cc(OC)c1OC` [Compound 9, (12S)-74,75-dimethoxy-6-oxo-8-oxa-5-aza-1(1,4)-diazepana-7(1,3)-benzenacyclotetradecaphane-12-yl 3,4,5-trimethoxybenzoate] the value was over 500 nM.
For `COc1cc(C(=O)O[C@H]2CCCOc3cc(cc(OC)c3OC)C(=O)N(C)CCCN3CCCN(CC2)CC3)cc(OC)c1OC` [Compound 12, (12S)-74,75-dimethoxy-5-methyl-6-oxo-8-oxa-5-aza-1(1,4)-diazepana-7(1,3)-benzenacyclotetradecaphane-12-yl 3,4,5-trimethoxybenzoate] the value was over 500 nM; for `COc1cc(C(=O)O[C@H]2CCCn3ncc4c(Cl)cc(cc43)C(=O)NCCCN3CCCN(CC2)CC3)cc(OC)c1OC` [Compound 15, (10S)-14-chloro-2-oxo-11H-3-aza-1(6,1)-indazola-7(1,4)-diazepanacyclotridecaphane-10-yl 3,4,5-trimethoxybenzoate], over 500 nM.
Take `COc1cc(C(=O)O[C@@H]2CCCn3ncc4c(Cl)cc(cc43)C(=O)NCCCN3CCCN(CC2)CC3)cc(OC)c1OC` [Compound 16, (10R)-14-chloro-2-oxo-11H-3-aza-1(6, 1)-indazola-7(1,4)-diazepanacyclotridecaphane-10-yl 3,4,5-trimethoxybenzoate]: the IC50 was 20 to 500 nM.
As for `COc1cc(C(=O)OC2CCCOc3cc(cc(Cl)c3Cl)C(=O)OCCCN3CCCN(CC2)CC3)cc(OC)c1OC` (stereo not drawn) [Compound 21, 74,75-dichloro-6-oxo-5,8-dioxa-1(1,4)-diazepana-7(1,3)-benzenacyclotetradecaphane-12-yl 3,4,5-trimethoxybenzoate], the concentration for half-maximal inhibition (IC50) was in the range of 1 to 20 nM.
Next, `COc1cc(C(=O)O[C@H]2CCCOc3cc(cc(Cl)c3Cl)C(=O)OCCCN3CCCN(CC2)CC3)cc(OC)c1OC` [Compound 22, (12S)-74,75-dichloro-6-oxo-5,8-dioxa-1(1,4)-diazepana-7(1,3)-benzenacyclotetradecaphane-12-yl 3,4,5-trimethoxybenzoate]: 20 to 500 nM; `COc1cc(C(=O)O[C@@H]2CCCOc3cc(cc(Cl)c3Cl)C(=O)OCCCN3CCCN(CC2)CC3)cc(OC)c1OC` [Compound 23, (12R)-74,75-dichloro-6-oxo-5,8-dioxa-1(1,4)-diazepana-7(1,3)-benzenacyclotetradecaphane-12-yl 3,4,5-trimethoxybenzoate]: 20 to 500 nM; `COc1cc2cc(c1OC)OCCCC(OC(=O)c1ccc(Cl)c(Cl)c1)CCN1CCCN(CCCOC2=O)CC1` (stereo not drawn) [Compound 24, 74,75-dimethoxy-6-oxo-5,8-dioxa-1(1,4)-diazepana-7(1,3)-benzenacyclotetradecaphane-12-yl 3,4-dichlorobenzoate]: 20 to 500 nM.
`COc1cc(C(=O)O[C@H]2CCCn3cc4c(Cl)cc(cc4n3)C(=O)NCCCN3CCCN(CC2)CC3)cc(OC)c1OC` [Compound 25, (11Z, 16E, 10S)-14-chloro-2-oxo-12 H-3-aza-1(6,2)-indazola-7(1,4)-diazepanacyclotridecaphane-10-yl 3,4,5-trimethoxybenzoate] registered an IC50 of over 500 nM.
For `COc1cc(C(=O)O[C@@H]2CCCn3cc4c(Cl)cc(cc4n3)C(=O)NCCCN3CCCN(CC2)CC3)cc(OC)c1OC` [Compound 26, (11Z, 16E, 10R)-14-chloro-2-oxo-12H-3-aza-1(6,2)-indazola-7(1,4)-diazepanacyclotridecaphane-10-yl 3,4,5-trimethoxybenzoate] the value was over 500 nM; for `COc1cc2cc(c1OC)OCCCC(OC(=O)c1ccc(F)c(Cl)c1)CCN1CCCN(CCCOC2=O)CC1` (stereo not drawn) [Compound 27, 74,75-dimethoxy-6-oxo-5,8-dioxa-1(1,4)-diazepana-7(1,3)-benzenacyclotetradecaphane-12-yl 3-chloro-4-fluorobenzoate], 1 to 20 nM.
Next, `COc1cc(C(=O)O[C@@H]2CCCOc3cc(cc(Cl)c3C(N)=O)C(=O)NCCCN3CCCN(CC2)CC3)cc(OC)c1OC` [Compound 28, (12R)-74-carbamoyl-75-chloro-6-oxo-8-oxa-5-aza-1(1,4)-diazepana-7(1,3)-benzenacyclotetradecaphane-12-yl 3,4,5-trimethoxybenzoate]: 1 to 20 nM; `COc1cc2cc(c1OC)OCCCC(OC(=O)c1ccc(F)cc1)CCN1CCCN(CCCOC2=O)CC1` (stereo not drawn) [Compound 29, 74,75-dimethoxy-6-oxo-5,8-dioxa-1(1,4)-diazepana-7(1,3)-benzenacyclotetradecaphane-12-yl 4-fluorobenzoate]: 1 to 20 nM; `COc1cc2cc(c1OC)OCCCC(OC(=O)c1ccc(OC(F)(F)F)cc1)CCN1CCCN(CCCOC2=O)CC1` (stereo not drawn) [Compound 30, 74,75-dimethoxy-6-oxo-5,8-dioxa-1(1,4)-diazepana-7(1,3)-benzenacyclotetradecaphane-12-yl 4-(trifluoromethoxy)benzoate]: 20 to 500 nM.
Next, `COc1cc2cc(c1OC)OCCC[C@@H](OC(=O)c1ccccc1)CCN1CCCN(CCCOC2=O)CC1` [Compound 31, (12R)-74,75-dimethoxy-6-oxo-5,8-dioxa-1(1,4)-diazepana-7(1,3)-benzenacyclotetradecaphane-12-yl benzoate]: 1 to 20 nM.
`COc1cc(C(=O)O[C@@H]2CCCOc3cc(cc(OC)c3OC)C(=O)OCCCC3CCN(CC3)CC2)cc(OC)c1OC` [Compound 34, (R)-74,75-dimethoxy-6-oxo-5,8-dioxa-1(4,1)-piperidina-7(1,3)-benzenacyclotetradecaphane-12-yl 3,4,5-trimethoxybenzoate]: the IC50 lay within 1 to 20 nM.
